Source: patent US5492909A, “Triazolopyridazine derivatives, their production and use” (Takeda Chemical Industries, Ltd., priority 1993, dated 1996)

System: PAF-induced bronchoconstriction
Test: Effect on bronchoconstriction induced by platelet activating factor (PAF) in guinea pigs (Konzett-Roessler method)
Format: in vivo, guinea pig (male Hartley)
Settings: oral, 1 hour before PAF (1 μg/kg i.v.)
Description: [Effect on bronchoconstriction induced by platelet activating factor (PAF) in guinea pigs]
Male Hartley guinea pigs (body weights about 500 g) were used. The bronchoconstriction reaction in the guinea pig which has intravenously been administered with PAF (1 μg/kg) was measured by the Konzett-Roessler method.
The trachea of the guinea pig with its back fixed was incised under anesthesia condition with urethane (intravenous injection, 1.5 g/kg) and connected with an artificial respirator via a cannula. The branch of the tracheal cannula was connected with a transducer (7020 type, manufactured by Ugobasile). Air was sent to the trachea at the rate of 3 to 7 ml per stroke, 70 strokes/min. and at load pressure of 10 cm H2 O to lung, and overflowed air volume was recorded with Rectegraph (Recte-Hori-8s, Sanei Sokuki Co., Ltd., Japan) via transducer. After the guinea pig was treated with gallamine (intravenous injection, 1 mg/kg), 1 μg/kg of PAF dissolved in a physiological saline solution was administered to the guinea pig via jugular venous cannula and the bronchoconstriction reaction induced thereby was recorded for 15 minutes. The drug (3 mg/kg and 10 mg/kg respectively) suspended in a 5% gum arabic solution was administered orally 1 hour before the injection of PAF.

CC(C)(COc1ccc2nncn2n1)CS(N)(=O)=O [Example 5, 6-(2,2-dimethyl-3-sulfamoyl-1-propoxy)[1,2,4]triazolo[4,3-b]pyridazine]
Inhibition (%) of PAF-induced bronchoconstriction (3 mg/kg): 22.4% | Inhibition (%) of PAF-induced bronchoconstriction (10 mg/kg): 41.2%

CCC(CC)(COc1ccc2nncn2n1)CS(N)(=O)=O [Example 3, 6-(2,2-diethyl-3-sulfamoyl-1-propoxy)[1,2, 4]triazolo[4,3-b]pyridazine]
Inhibition (%) of PAF-induced bronchoconstriction (3 mg/kg): 51.1% | Inhibition (%) of PAF-induced bronchoconstriction (10 mg/kg): 61.2%

CCC(CC)(COc1cc(C)c2nncn2n1)CS(N)(=O)=O [Example 1, 6-(2,2-diethyl-3-sulfamoyl-1-propoxy)-8-methyl-[1,2,4]triazolo[4,3-b]pyridazine]
Inhibition (%) of PAF-induced bronchoconstriction (3 mg/kg): 85.8% | Inhibition (%) of PAF-induced bronchoconstriction (10 mg/kg): 100%
